Data on 2 compounds can be found in patent US4956489A (Bioeurope, priority 1987, dated 1990).

Molecules are shown by their SMILES. Where two headings read alike, the source gives them in different places. Where only a bound is given, the exact number is not on record here.

Data set [1] is described as follows: solubility in ethyl acetate. In kind it is physicochemical. The note with it: extraction of the aqueous phase with ethyl acetate. From the text:
(§1) The amounts of residual solvent present in the final aqueous phase are removed by extraction with 2 liters of ethyl acetate. […] The aqueous phase is then concentrated by evaporation under vacuo, after which it is lyophilized. The structure of the product was verified by elemental analysis and proton NMR spectroscopy.

Data set [2] is described as follows: solubility in water. The note with it: in water at 25° C. and pH 6. In kind it is physicochemical.
Text: as §1
(b) The lactyl-L-tyrosine ethyl ester is purified and deesterified according to the procedure described in Example 1 in relation to L-malyl-L-tyrosine ethyl ester, to obtain L-lactyl-L-tyrosine monosodium salt.

Setting [3] is: read-out: solubility in water, equivalent molar.

One may read the solubility as the concentration that dissolves in the medium under given conditions.

Consider `O=C([O-])C[C@H](O)C(=O)N[C@@H](Cc1ccc(O)cc1)C(=O)[O-].[Na+].[Na+]` [L-malyl-L-tyrosine disodium salt], for which the “solubility in ethyl acetate” value in data set [1] is listed as “not soluble in ethyl acetate”. The figures for the solubility in data set [2] (read-out: solubility in water) and in data set [2] (setting [3]) were 820 mg/mL and 2400 mM, respectively.

Turning to `C[C@H](O)C(=O)N[C@@H](Cc1ccc(O)cc1)C(=O)[O-].[Na+]`, the values for the solubility in data set [2] (read-out: solubility in water) and in data set [2] (setting [3]) were at least 330 mg/mL and at least 1200 mM, respectively.
